Experimental findings from ChEMBL document CHEMBL1212792, “Comparative pharmacokinetics of ceftaroline in rats, rabbits, and monkeys following a single intravenous or intramuscular injection” (Antimicrob Agents Chemother, 2010) are described below.

Converted amounts (≈) assume the structure as drawn.

A short description of assay [1]: %T>MIC in rabbit endocarditis model at 20 mg/kg, im administered as single dose measured after 8 hrs. It counts as functional. The settings on record: route intramuscular.
The nature of assay [2]: %T>MIC in Streptococcus pneumoniae-infected neutropenic mouse model. The class given is functional.
Another assay deals with Streptococcus pneumoniae. The assay is described as follows: Antibacterial activity against Streptococcus pneumoniae. It counts as functional.
A short description of assay [3]: %T>MIC in rabbit endocarditis model at 20 mg/kg, im administered as single dose measured after 12 hrs. The class given is functional. The note with it: route intramuscular.
The nature of assay [4]: %T>MIC in gram negative bacteria-infected neutropenic mouse model. The class given is functional.
Assay [5] deals with Staphylococcus. The assay is described as follows: Antibacterial activity against Staphylococcus infected in human. The class given is functional.
Assay [6] concerns Staphylococcus. The assay is described as follows: Antibacterial activity against Staphylococcus. It counts as functional.
Assay [7] can be described thus: %T>MIC in Staphylococcus aureus-infected neutropenic mouse model. The class given is functional.
The nature of assay [8]: %T>MIC human infected with Staphylococcus at 600 mg. im administered every 12 hrs. The note with it: route intramuscular.

As for `CCO/N=C(\C(=O)N[C@@H]1C(=O)N2C(C(=O)[O-])=C(Sc3nc(-c4cc[n+](C)cc4)cs3)CS[C@H]12)c1nsc(NP(=O)(O)O)n1` [CEFTAROLINE FOSAMIL], the “fT>MIC” value in assay [1] amounted to 46.3%; in assay [2] it was 39%; in assay [3] it was 30.9%; in assay [4], 32%; in [7], 26%; in assay [8] it was 64.65%. In addition, the MIC90 in the assay with Streptococcus pneumoniae and against Staphylococcus [6] was at most 2 µg/mL throughout. This molecule came in with a minimum inhibitory concentration (MIC) in the assay with Staphylococcus [5] of 0.12 µg/mL (≈ 0.175 µM).

As a reminder, the MIC90 is the lowest concentration that inhibits either 90% of growth or 90% of the strains tested, depending on the study. A high value points to weaker potency. One may read the MIC as the smallest concentration in the dilution series that meets the test's criterion for growth inhibition. A higher MIC goes with a less susceptible organism.
